Data from US20230398194A1 (priority 2016, published 2023).

Experiments:
porcine gut microbiome = experiment: Piglet gut microbiome study: fecal resistome by whole genome shotgun metagenomics, ceftriaxone with or without SYN-004 (ribaxamase); type: in vivo, pig; details: for blaOXA genes (extended spectrum OXA class D beta-lactamases), level in fecal microbiome / change in the mean of relative gene frequencies of acrE, baeR, emrY, mdtD, mdtN, pbp2, pbp4, AmpC (FIG. 3) / mdtD gene levels / AmpC gene frequencies / Aminoglycoside_strA gene level (FIG. 4A) / Tetracycline_tet39 gene level (FIG. 4B): CRO alone vs CRO+ribaxamase; for blaOXA genes (extended spectrum OXA class D beta-lactamases), level in fecal microbiome: 5 piglets per cohort; for AmpC gene frequencies: by Day 4, after an increase from Day −7 to Day −4 in both cohorts; for abundance of antibiotic resistance genes in the porcine gut microbiome (overall conclusion): ceftriaxone treatment alone vs with SYN-004 (ribaxamase); for Aminoglycoside_strA gene level (FIG. 4A) / Tetracycline_tet39 gene level (FIG. 4B): day 4 after antibiotic treatment, 5 animals per cohort
Procedure: See Table 2 and FIG. 1 for study design and timeline. Animals were acclimated for 14 days prior to study initiation. Ceftriaxone (CRO) was administered daily for 7 days and animals that received SYN-004 (ribaxamase) starting the day before antibiotic treatment for 9 consecutive days. Feces were collected on Study Days −7, −4, 4, and 8. Fecal DNA was isolated and subjected to whole genome shotgun metagenomics analyses. The community resistome, the collection of antibiotic resistance genes in the microbiome, was identified by comparison to a curated antibiotic resistance gene database.
Two groups of 5 normal piglets each were used in this study. Group 1 animals were treated with ceftriaxone (IV, 1× per day, 50 mg/kg) for 7 consecutive days and Group 2 animals received ceftriaxone (IV, 1× per day, 50 mg/kg) for 7 consecutive days and SYN-004 (ribaxamase, orally, 4× per day, 75 mg/dose) for 9 consecutive days starting the day before ceftriaxone delivery.
Normal piglets (2 months old, approximately 50 lbs) were acclimated for 14 days prior to study initiation. Two cohorts of 5 animals each were used for this study, Group 1 received ceftriaxone alone and Group 2 received ceftriaxone and SYN-004 (ribaxamase), as indicated in Table 2. Stool was collected at 4 time points, two prior to treatment, at Study Days −7 and −4, and two during treatment at Study Day 4 and 8.
Total DNA was isolated from fecal specimens, using the MOBIO Power-Soil® DNA Isolation Kit (Qiagen, Germantown, MD), following the manufacturer's instructions. Each DNA sample was normalized in 3-18 uL of nuclease-free water for a final concentration of 0.5 ng/uL using the Biomek FX liquid handler (Beckman Coulter Life Sciences, Brea, CA). Libraries were constructed using the Nextera XT Library Prep Kit (illumine, San Diego, CA). For each sample, an input of 0.5 ng was used in the tagmentation reaction, followed by 13 cycles of PCR amplification using Nextera i7 and i5 index primers and 2× KAPA master mix per the modified Nextera XT protocol. The PCR products were purified using 1.0× speed beads and eluted in 15 ul of nuclease-free water. The final libraries were quantified by PicoGreen fluorometric assay (100× final dilution) and the concentrations were in the range of 0.1-4.0 ng/ul. The libraries were pooled, based on concentration determined by PicoGreen and loaded onto a high sensitivity (HS) chip run on the Caliper LabChipGX (Perkin Elmer, Waltham, MA). The base pair size reported was in the range of 301-680 bp. Each pool of 64 was run across 8 lanes of an Illumina HiSeq v3 flowcell, targeting 100 bp paired end reads per sample.
Briefly, raw, unassembled shotgun sequence reads were probed against the CosmosID, Inc. curated antibiotic resistance gene database.

fecal microbiomes = details: for effect on microbiota populations in the GI tract (conclusion): oral amoxicillin alone vs with SYN-004; for position of post treatment fecal microbiomes in Principal Coordinate Analysis (Bray-Curtis, FIG. 7): post treatment vs pretreatment cluster, amoxicillin alone vs amoxicillin+SYN-004, 5 dogs per cohort
Procedure: The ability of a delayed-release formulation of SYN-004 (ribaxamase), to mitigate the propagation of antibiotic resistance genes caused by exposure of the gut microbiota to oral amoxicillin was evaluated in normal, seven month old female beagles. Animals were acclimated for 24 days prior to dosing initiation. Animals (n=10, 5 animals per cohort) received oral amoxicillin (40 mg/kg/dose, reconstituted in apple juice) three times a day+/−one capsule of SYN-004 (10 mg) for 5 days, with the last dose on the morning of day 6. The animals received 16 total doses of amoxicillin+/−SYN-004. Fecal samples were collected prior to antibiotic dosing and after the last dose. Blood was collected after the first antibiotic dose on day 1 and after the last dose on day 6. On each blood collection day, blood was collected from each animal at seven time points, 0.5, 1, 2, 3, 4, 6, and 8 hrs. Amoxicillin serum levels were measured using a validated liquid chromatography (LC) method with tandem mass spectrometry detection (LC/MS/MS). DNA isolated from fecal samples was subjected to whole genome shotgun sequencing and metagenomics analyses.
DNA isolated from the fecal samples was subjected to whole genome sequencing and analyzed using the CosmosID, Inc. bioinformatics software package. Analyses included identification of the microbiota species present in the fecal microbiomes and identification of antibiotic-resistance genes based on the percentage gene coverage for each gene and quantified by determining the frequency (%) of each gene in each sample.
To determine if SYN-004 protected the fecal microbiomes from damage caused by oral amoxicillin, the microbiome bacterial populations were compared using a three coordinate Principal Coordinate Analysis (CosmosID, Inc. bioinformatics software). Distance between points indicates degree of difference in sample diversity with points close together more similar.

canine gut microbiome = experiment: Canine fecal resistome analysis, oral amoxicillin with or without SYN-004; type: in vivo, dog; details: for abundance of antibiotic resistance genes in the canine gut microbiome (overall conclusion): oral amoxicillin exposure alone vs with SYN-004; for change in the mean of relative gene frequencies of selected resistance genes (FIG. 9): amoxicillin alone vs amoxicillin+SYN-004
Procedure: To determine if SYN-004 affected the abundance of antibiotic resistance genes, resistome analyses were performed.
Several genes were selected for further analysis. For each selected gene, the change in the mean of relative gene frequencies from pretreatment to post treatment was compared in the amoxicillin alone or the amoxicillin+SYN-004 cohorts (FIG. 9).

[1] = Amoxicillin serum levels (LC/MS/MS) in dogs given oral amoxicillin with or without SYN-004; type: in vivo, dog; details: for amoxicillin serum levels (area under the curve), amoxicillin alone vs amoxicillin+SYN-004: amoxicillin 40 mg/kg/dose oral TID +/- SYN-004 10 mg capsule
Procedure: Amoxicillin serum levels were plotted for each group for each blood collection day as mean+standard deviation for each time point. Area under the curve was calculated for each group for each bleed day (day 1 and day 6) and were compared statistically using one-way ANOVA with Dunnett's multiple comparison tests (Graph Pad Prism 7.03 software).

[2] = ertapenem 30 mg/kg IV once a day; P2A 50 mg PO 4 times a day; expected result
Procedure: Animals (n=16, 8 animals per cohort) receive ertapenem (30 mg/kg/dose, IV, once a day for 4 days)+/−one capsule of P2A (50 mg, PO, 4 times a day). The P2A is started the day before antibiotic treatment and continues with one final dose the morning of day 5. […] Blood is collected on day 3 after 3 ertapenem doses. Blood is collected at 3 timepoints, 1 hr, 2 hrs, and 3 hrs after ertapenem.

CO/N=C(\C(=O)N[C@@H]1C(=O)N2C(C(=O)O)=C(CSc3nc(=O)c(=O)[nH]n3C)CS[C@H]12)c1csc(N)n1 [Ceftriaxone, reference compound]
blaCTX-M_82 or blaCFX_A4 genes (class A serine beta-lactamases), level in fecal microbiome (porcine gut microbiome; Day 4, CRO alone): detected at Day 4 at high levels in two of the CRO animals | blaOXA genes (extended spectrum OXA class D beta-lactamases), level in fecal microbiome (porcine gut microbiome; Day 4): present at high levels in two of five CRO animals | change in the mean of relative gene frequencies of acrE, baeR, emrY, mdtD, mdtN, pbp2, pbp4, AmpC (FIG. 3) (porcine gut microbiome; Day −4 to Day 4): increased for each gene | mdtD gene levels (porcine gut microbiome; Day −4 to Day 4): doubled | AmpC gene frequencies (porcine gut microbiome): continued to increase | abundance of antibiotic resistance genes in the porcine gut microbiome (overall conclusion) (porcine gut microbiome): increased the abundance of antibiotic resistance genes | Aminoglycoside_strA gene level (FIG. 4A) (porcine gut microbiome): detected at high levels in 4 of 5 animals | Tetracycline_tet39 gene level (FIG. 4B) (porcine gut microbiome): detected at high levels in 4 of 5 animals | abundance of antibiotic resistance genes in the fecal microbiome (heatmaps, FIG. 2A, 2B) (porcine gut microbiome; post-treatment Day 4, CRO 50 mg/kg IV 1x per day alone vs CRO+ribaxamase 75 mg oral QID): higher abundance of antibiotic resistance genes

CC1(C)S[C@@H]2[C@H](NC(=O)[C@H](N)c3ccc(O)cc3)C(=O)N2[C@H]1C(=O)O [amoxicillin]
effect on microbiota populations in the GI tract (conclusion) (fecal microbiomes): disrupts the microbiota populations in the GI tract | position of post treatment fecal microbiomes in Principal Coordinate Analysis (Bray-Curtis, FIG. 7) (fecal microbiomes): 4/5 post treatment samples were plotted far from the pretreatment cluster | abundance of antibiotic resistance genes, pretreatment to post treatment (canine gut microbiome; amoxicillin alone compared to amoxicillin+SYN-004 cohort): higher abundance of antibiotic resistance genes post treatment | TEM and OXA beta-lactamase genes (e.g. TEM-113, OXA-136, FIG. 8), detection (canine gut microbiome; not detected prior to amoxicillin exposure): detected only at day 6 in the amoxicillin alone cohort | abundance of antibiotic resistance genes in the canine gut microbiome (overall conclusion) (canine gut microbiome): increased the abundance of antibiotic resistance genes | marA gene levels (canine gut microbiome; pretreatment to post treatment, amoxicillin alone): almost doubled | change in the mean of relative gene frequencies of selected resistance genes (FIG. 9) (canine gut microbiome; pretreatment to post treatment): increased for each gene

SYN-004: beta-lactamase with the amino acid sequence of SEQ ID NO: 1; D276N mutant of P1A
amoxicillin serum levels (area under the curve), amoxicillin alone vs amoxicillin+SYN-004 ([1]; day 1, p=0.703): not significantly different | amoxicillin serum levels (area under the curve), amoxicillin alone vs amoxicillin+SYN-004 ([1]; day 6, p=0.098): not significantly different | interference with amoxicillin systemic absorption from the gastrointestinal tract ([1]; delayed release SYN-004 formulation, dog): did not interfere | effect on microbiota populations in the GI tract (conclusion) (fecal microbiomes): can mitigate the damage caused by oral amoxicillin | position of post treatment fecal microbiomes in Principal Coordinate Analysis (Bray-Curtis, FIG. 7) (fecal microbiomes): also clustered with the pretreatment samples | blaOXA genes (extended spectrum OXA class D beta-lactamases), level in fecal microbiome (porcine gut microbiome; Day 4): absent or observed at lower frequencies | change in the mean of relative gene frequencies of acrE, baeR, emrY, mdtD, mdtN, pbp2, pbp4, AmpC (FIG. 3) (porcine gut microbiome; Day −4 to Day 4): decreased for each gene in the CRO+ribaxamase group except for pbp2 | mdtD gene levels (porcine gut microbiome; Day −4 to Day 4): reduced | pbp2 relative gene frequency change (porcine gut microbiome; Day −4 to Day 4, CRO+ribaxamase): increased only slightly above baseline | AmpC gene frequencies (porcine gut microbiome): decreased to levels similar to the Day −7 frequencies | abundance of antibiotic resistance genes in the porcine gut microbiome (overall conclusion) (porcine gut microbiome): attenuated this enrichment process | Aminoglycoside_strA gene level (FIG. 4A) (porcine gut microbiome): remained low or absent in all animals | Tetracycline_tet39 gene level (FIG. 4B) (porcine gut microbiome): only one animal in the CRO+ribaxamase cohort was identified with a high level | antibiotic resistance gene frequencies in the presence of ribaxamase (porcine gut microbiome; with ceftriaxone, vs pre-antibiotic treatment levels): reduced or maintained at pre-antibiotic treatment levels | abundance of antibiotic resistance genes in the canine gut microbiome (overall conclusion) (canine gut microbiome): attenuated this enrichment process | change in the mean of relative gene frequencies of selected resistance genes (FIG. 9) (canine gut microbiome; pretreatment to post treatment): decreased for each gene | marA gene levels, reduction (canine gut microbiome; pretreatment to post treatment, amoxicillin+SYN-004 cohort): approximately 50% | antibiotic resistance gene frequencies in the presence of SYN-004 (canine gut microbiome; with oral amoxicillin): reduced

B1: P2A: carbapenemase, beta-lactamase polypeptide of SEQ ID NO: 6 (protein)
chain: ETGTISISQLNKNVWVHTELGYFNGEAVPSNGLVLNTSKGLVLVDSSWDNKLTKELIEMVEKKFQKRVTDVIITHAHADRIGGITALKERGIKAHSTALTAELAKNSGYEEPLGDLQTITSLKFGNTKVETFYPGKGHTEDNIVVWLPQYQILAGGCLVKSAEAKDLGNVADAYVNEWSTSIENVLKRYGNINSVVPGHGEVGDKGLLLHTLDLLK
ertapenem serum levels, ertapenem alone vs ertapenem+P2A [2]: not expected to be different
